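Method: 48-hour compound exposure of cells in 96-well plates, five concentrations, linear interpolation of endpoints. At the GI50, growth is halved.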 Calls of active or inactive are those of the source. Cut-off read from the data, not from the text of the source: active = GI50 up to about 1.1 µM and inactive = higher.
Key:
Assay in all cases: inhibition of tumour cell growth, NCI panel, 48 h
[1] = system: SK-MEL-5
[2] = system: CAKI-1
[3] = system: K562
[4] = system: SNB-19
[5] = system: KM12
[6] = system: A498
[7] = system: CCRF-CEM
[8] = system: ACHN
[9] = system: SK-MEL-2
[10] = system: MDA-N
[11] = system: SK-MEL-28
[12] = system: UO-31
[13] = system: U-251
[14] = system: IGROV-1
[15] = system: NCI-H226
[16] = system: T47D
[17] = system: RPMI-8226
[18] = system: NCI/ADR-RES
[19] = system: M14
[20] = system: BT-549

Structure (SMILES) | GI50 [1] | GI50 [2] | GI50 [3] | GI50 [4] | GI50 [5] | GI50 [6] | GI50 [7] | GI50 [8] | GI50 [9] | GI50 [10] | GI50 [11] | GI50 [12] | GI50 [13] | GI50 [14] | GI50 [15] | GI50 [16] | GI50 [17] | GI50 [18] | GI50 [19] | GI50 [20]
Cc1nc2ccc(Cl)cc2c2c1CCN2c1ccc(F)cc1 | 7.87 µM (inactive) | 18.4 µM (inactive) | 5.35 µM (inactive) | 33.1 µM (inactive) | 25.8 µM (inactive) | 0.891 µM (active) | 11.6 µM (inactive) | 17.7 µM (inactive) | 23 µM (inactive) | 7 µM (inactive) | 20 µM (inactive) | 5.4 µM (inactive) | 45.8 µM (inactive) | 9.42 µM (inactive) | 16.2 µM (inactive) | 36.1 µM (inactive) | 8.24 µM (inactive) | 13 µM (inactive) | 16.5 µM (inactive) | –
CC(NC(=O)N(C)C)NC(=O)N(C)C | > 10 µM (inactive) | > 10 µM (inactive) | > 10 µM (inactive) | > 10 µM (inactive) | > 10 µM (inactive) | > 10 µM (inactive) | > 10 µM (inactive) | > 10 µM (inactive) | > 10 µM (inactive) | > 10 µM (inactive) | > 10 µM (inactive) | > 10 µM (inactive) | > 10 µM (inactive) | > 10 µM (inactive) | > 10 µM (inactive) | > 10 µM (inactive) | > 10 µM (inactive) | > 10 µM (inactive) | > 10 µM (inactive) | –
CC(C)CC/N=c1/cc2n(-c3ccc(Cl)cc3)c3ccccc3nc-2cc1Nc1ccc(Cl)cc1 | 12.7 µM (inactive) | 10.4 µM (inactive) | 2.96 µM (inactive) | 32.3 µM (inactive) | 4.3 µM (inactive) | 15 µM (inactive) | 3.72 µM (inactive) | – | 3.96 µM (inactive) | – | 15.6 µM (inactive) | 5.56 µM (inactive) | 8.67 µM (inactive) | 3.13 µM (inactive) | 6.25 µM (inactive) | – | 2.22 µM (inactive) | 10.1 µM (inactive) | – | –
CC(C)[Si](CC1=CCCCC12C(=O)N(COCC[Si](C)(C)C)c1ccccc12)(C(C)C)C(C)C (configuration not stated) | 43.7 µM (inactive) | > 100 µM (inactive) | > 100 µM (inactive) | 66.5 µM (inactive) | > 100 µM (inactive) | > 100 µM (inactive) | 0.448 µM (active) | > 100 µM (inactive) | > 100 µM (inactive) | > 100 µM (inactive) | 92.5 µM (inactive) | > 100 µM (inactive) | > 100 µM (inactive) | > 100 µM (inactive) | > 100 µM (inactive) | 33.7 µM (inactive) | > 100 µM (inactive) | > 100 µM (inactive) | > 100 µM (inactive) | –
COC(=O)C1CCC2(CC1)NC(=O)NC2=O (configuration not stated) | > 100 µM (inactive) | > 100 µM (inactive) | > 100 µM (inactive) | > 100 µM (inactive) | > 100 µM (inactive) | > 100 µM (inactive) | > 100 µM (inactive) | > 100 µM (inactive) | > 100 µM (inactive) | – | > 100 µM (inactive) | > 100 µM (inactive) | > 100 µM (inactive) | > 100 µM (inactive) | > 100 µM (inactive) | – | > 100 µM (inactive) | – | > 100 µM (inactive) | –
CS(=O)(=O)c1ccc2nc(-c3ccc(O)cc3)sc2c1 | 17.4 µM (inactive) | 17.6 µM (inactive) | 33.8 µM (inactive) | 17.4 µM (inactive) | 16 µM (inactive) | 16.4 µM (inactive) | 25.2 µM (inactive) | 17.9 µM (inactive) | 20 µM (inactive) | 17.7 µM (inactive) | – | 14.8 µM (inactive) | 19 µM (inactive) | 19.2 µM (inactive) | 18.5 µM (inactive) | – | 15.7 µM (inactive) | 13.8 µM (inactive) | 21.6 µM (inactive) | 16.4 µM (inactive)
COc1c2ccoc2c(S(=O)(=O)Nc2ccc(Cl)cc2)c2oc(C)cc(=O)c12 | > 79.8 µM (inactive) | > 34.9 µM (inactive) | > 100 µM (inactive) | 99.1 µM (inactive) | > 100 µM (inactive) | 54.6 µM (inactive) | > 100 µM (inactive) | – | > 76.2 µM (inactive) | – | > 100 µM (inactive) | > 50.9 µM (inactive) | > 100 µM (inactive) | > 100 µM (inactive) | > 81.1 µM (inactive) | – | > 100 µM (inactive) | > 100 µM (inactive) | – | –
CCCCC1(O)CC2CC1C(C)C2(C)C (configuration not stated) | > 100 µM (inactive) | > 100 µM (inactive) | > 100 µM (inactive) | > 100 µM (inactive) | > 100 µM (inactive) | – | 93.5 µM (inactive) | – | – | > 100 µM (inactive) | > 100 µM (inactive) | > 100 µM (inactive) | > 100 µM (inactive) | > 100 µM (inactive) | > 100 µM (inactive) | – | 54.6 µM (inactive) | > 100 µM (inactive) | > 100 µM (inactive) | > 100 µM (inactive)
COc1cccc(NC(=O)C(=O)C(C(=O)c2ccccc2F)C2OC(=O)c3ccccc32)c1 (configuration not stated) | 52 µM (inactive) | 52.5 µM (inactive) | 30.9 µM (inactive) | 24.9 µM (inactive) | 45.8 µM (inactive) | 72.6 µM (inactive) | 16.9 µM (inactive) | 45.1 µM (inactive) | 22.5 µM (inactive) | – | 58.6 µM (inactive) | 34.4 µM (inactive) | 15.5 µM (inactive) | 56.6 µM (inactive) | 28 µM (inactive) | – | 21.6 µM (inactive) | – | 48 µM (inactive) | –
C[C@]12CCC(=O)C=C1CC[C@@H]1[C@@H]2[C@@H](O)C[C@@]2(C)[C@H]1CC[C@]2(O)C(=O)COC(=O)COCC(=O)O | > 100 µM (inactive) | > 100 µM (inactive) | > 100 µM (inactive) | > 100 µM (inactive) | > 100 µM (inactive) | > 100 µM (inactive) | > 100 µM (inactive) | > 100 µM (inactive) | > 100 µM (inactive) | – | > 100 µM (inactive) | > 100 µM (inactive) | > 100 µM (inactive) | > 100 µM (inactive) | > 100 µM (inactive) | – | > 100 µM (inactive) | – | > 100 µM (inactive) | –
COc1c2cc(C(C)(C)C)cc1Cc1cccc(c1O)Cc1cc(C(C)(C)C)cc(c1OC)Cc1cccc(c1O)Cc1cc(C(C)(C)C)cc(c1OC)Cc1cccc(c1O)C2 | > 100 µM (inactive) | > 100 µM (inactive) | > 100 µM (inactive) | > 100 µM (inactive) | > 100 µM (inactive) | > 100 µM (inactive) | > 10 µM (inactive) | > 100 µM (inactive) | > 100 µM (inactive) | > 100 µM (inactive) | > 100 µM (inactive) | > 100 µM (inactive) | > 100 µM (inactive) | – | – | > 100 µM (inactive) | > 100 µM (inactive) | > 100 µM (inactive) | 55.6 µM (inactive) | –
O=C(O)CCCCCCC[C@@H]1S[C@H]1CCCCCCO | > 100 µM (inactive) | > 100 µM (inactive) | > 100 µM (inactive) | > 100 µM (inactive) | > 100 µM (inactive) | > 60.7 µM (inactive) | > 100 µM (inactive) | – | > 100 µM (inactive) | – | > 100 µM (inactive) | > 100 µM (inactive) | > 100 µM (inactive) | > 64.7 µM (inactive) | > 100 µM (inactive) | – | > 100 µM (inactive) | > 100 µM (inactive) | – | –
COC(=O)/C=C\C1C(C(=O)OC)C2(C(=O)OC)CCC1(C(=O)OC)N2 (configuration not stated) | 19.3 µM (inactive) | 2.88 µM (inactive) | 12 µM (inactive) | 15.8 µM (inactive) | 20.5 µM (inactive) | 18.1 µM (inactive) | 4.15 µM (inactive) | 9.33 µM (inactive) | 15.5 µM (inactive) | – | 13.6 µM (inactive) | 17 µM (inactive) | 18.5 µM (inactive) | 26.9 µM (inactive) | 19.1 µM (inactive) | – | 5.08 µM (inactive) | – | 14.9 µM (inactive) | –
CC(C)(C)N/N=C(\Cc1occc(=O)c1O)C(=O)Nc1ccc([N+](=O)[O-])cc1[N+](=O)[O-] | > 100 µM (inactive) | > 100 µM (inactive) | > 100 µM (inactive) | > 100 µM (inactive) | > 100 µM (inactive) | > 100 µM (inactive) | > 100 µM (inactive) | > 100 µM (inactive) | > 100 µM (inactive) | – | > 100 µM (inactive) | > 100 µM (inactive) | > 100 µM (inactive) | > 100 µM (inactive) | > 100 µM (inactive) | – | > 100 µM (inactive) | – | > 100 µM (inactive) | –
Cn1c(=O)nc2n(-c3ccc(O)cc3)c3ccccc3nc-2c1=O | 18.7 µM (inactive) | 13.7 µM (inactive) | > 100 µM (inactive) | > 100 µM (inactive) | 55.3 µM (inactive) | > 100 µM (inactive) | 33 µM (inactive) | 2.78 µM (inactive) | 82.2 µM (inactive) | – | > 100 µM (inactive) | > 100 µM (inactive) | 14 µM (inactive) | > 100 µM (inactive) | 92.3 µM (inactive) | – | 63.7 µM (inactive) | – | 20.4 µM (inactive) | –
CNC(=S)/C(C#N)=C(\N)N1CCCC1 | > 100 µM (inactive) | > 100 µM (inactive) | > 100 µM (inactive) | > 100 µM (inactive) | > 100 µM (inactive) | > 100 µM (inactive) | > 100 µM (inactive) | > 100 µM (inactive) | > 100 µM (inactive) | > 100 µM (inactive) | > 100 µM (inactive) | > 100 µM (inactive) | > 100 µM (inactive) | > 100 µM (inactive) | > 100 µM (inactive) | 57.5 µM (inactive) | > 100 µM (inactive) | > 100 µM (inactive) | – | –
